Reference: PMC12064818, “A general assay platform to study protein pharmacology using ligand-dependent structural dynamics” (Nature Communications, 2025)

Biological target: T1, FLuc-C-HiBiT (Photinus pyralis, UniProt P08659)
T1 construct: firefly luciferase with C-terminal HiBiT tag, E. coli expressed
Experiment: biochemical
Details: enzyme activity, 10 uM ATP; read-out: IC50 or SDR50 (mM) / FLuc E
Procedure: The enzyme activity of FLuc-N-HiBiT, FLuc-C-HiBiT, and FLuc-C-NLuc was measured similar to P. pyralis firefly luciferase (FLuc) as previously described. […] Compounds and controls were added to each plate as described in Supplementary Data 8 with a Hornet pintool system (Wako Automation). Compounds were incubated with respective enzymes for 30–60 min at room temperature protected from light and covered by solid metal lid to prevent evaporation. […] Luciferin was incubated with FLuc enzyme for 5 min before FLuc activity was then measured on a ViewLux CCD imager (PerkinElmer), with exposure times up to ten seconds with medium to high gain settings. Data were normalized to average no enzyme control as 100% enzyme inhibition and average DMSO neutral control. See Supplementary Table 4 for additional details. As a proof-of-concept target, we appended the sensor protein or corresponding α-peptide to either the N- or C-terminus of the target protein firefly luciferase (FLuc), an ATP cofactor-dependent monooxygenase (Supplementary Fig. 1a) having a broad, well-characterized and accessible ligand pharmacology. For initial characterization of the SDR concept, either NLuc or the 11 amino acid HiBiT tag (α-peptide) and complementary 18 kDa LgBiT subunit (ω-fragment), which self-assemble to reconstitute functional NLuc enzyme[24] were tested. In contrast to the ATP-dependent bioluminescent FLuc enzyme, NLuc generates a bright bioluminescence in an ATP-independent manner from the direct oxidation of furimazine (Supplementary Fig. 1b). […] Next, FLuc-C-NLuc, FLuc-N-HiBiT or FLuc-C-HiBiT were assayed with the same inhibitor in an SDR assay format by monitoring bioluminescence from NLuc or its reconstitution by α-complementation with LgBiT. Measurements of NLuc activity were made either in the absence or presence of the FLuc ATP cofactor, as NLuc bioluminescence is ATP-independent.

T1 sequence (P08659 whole entry, looked up): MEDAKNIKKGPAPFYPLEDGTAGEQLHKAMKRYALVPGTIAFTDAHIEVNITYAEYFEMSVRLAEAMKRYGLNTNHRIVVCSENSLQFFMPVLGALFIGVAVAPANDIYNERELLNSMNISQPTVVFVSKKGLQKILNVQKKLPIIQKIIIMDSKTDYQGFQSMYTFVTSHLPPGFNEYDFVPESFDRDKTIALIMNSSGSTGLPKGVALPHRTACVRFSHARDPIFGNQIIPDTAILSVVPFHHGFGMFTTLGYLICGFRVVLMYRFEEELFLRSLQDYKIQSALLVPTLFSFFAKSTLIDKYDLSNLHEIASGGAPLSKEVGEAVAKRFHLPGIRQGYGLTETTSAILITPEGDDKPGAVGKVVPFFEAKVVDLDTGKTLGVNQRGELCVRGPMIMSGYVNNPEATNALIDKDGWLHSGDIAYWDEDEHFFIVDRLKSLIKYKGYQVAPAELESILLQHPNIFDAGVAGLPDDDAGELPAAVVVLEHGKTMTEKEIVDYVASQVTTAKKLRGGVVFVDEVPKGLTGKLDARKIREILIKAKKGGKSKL

Compound	IC50 [mM]
CCOc1cccc2cc(-c3nc4ccc(C(=O)O)cc4[nH]3)c(=O)oc12 [NCGC00138160-01]	0.000157
CN(c1ccc(NC(=O)Nc2ccc(OC(F)(F)F)cc2)cc1)c1ccnc(Nc2cccc([S+](N)(=O)[O-])c2)n1 [NCGC00242042-02]	> 0.03
Cc1cc(NC(=O)c2ccc(CN3CC[C@H](O)C3)cc2)ccc1F [NCGC00432832-01]	0.00197
c1ccc(COc2ccccc2-c2nc3ccccc3s2)cc1 [NCGC00167623-01]	0.0124
COCC(=O)Nc1nc2c(s1)C[C@]1(C)CC[C@@H]3[C@H](OC(=O)[C@H]3C)[C@H]1[C@@H]2C [NCGC00391224-01]	0.00161
CCCCOc1nc(N)c2[nH]c(=O)n(Cc3cccc(CC(=O)OC)c3)c2n1 [NCGC00508895-01]	> 0.03
Cc1ccc(Cc2cn3cc(-c4ccccc4)nc3s2)cc1 [NCGC00102098-01]	0.000442
COc1ccc(C(=O)Oc2ccc(C(c3c(C)n[nH]c3O)c3c(C)n[nH]c3O)cc2)cc1 [NCGC00100425-01]	0.00989
Cc1ccc2nc(-c3ccc(NC(=O)c4ccc([S+](C)(=O)[O-])cc4)cc3)sc2c1 [NCGC00134160-01]	> 0.03
C=C1[C@H](CO)[C@@H](O)C[C@@H]1n1cnc2c(=O)[nH]c(N)nc21 [NCGC00164563-11]	> 0.03
Cc1ccc(-c2cc3c(=O)n(CCNC(=O)c4ccco4)ccn3n2)c(C)c1 [NCGC00456979-01]	0.00989
CC1CCC(NC(=O)c2noc(-c3ccccc3F)n2)CC1 (stereo not shown) [NCGC00447353-01]	0.0124
N#Cc1c(-n2ncnc2-c2cccc(Br)c2)sc2c1CCCCC2 [NCGC00099370-01]	0.00313
O=C(NC1CCN(c2cc(-c3ccc(F)cc3)n[nH]2)C1)c1cc2ccccc2[nH]1 (stereo not shown) [NCGC00437958-01]	0.00624
Cc1cnc(CC2CCCN(C(=O)CCc3c[nH]c4ccccc34)C2)n1C(C)C (stereo not shown) [NCGC00469687-01]	> 0.03
CCOC(=O)N1CCc2c(sc(NCc3sccc3C)c2C(=O)Nc2ccc(OC)cc2OC)C1 [NCGC00140803-01]	0.00495
CCCc1ccc(-c2nc(C3CCOC3)no2)cc1 (stereo not shown) [NCGC00445403-01]	0.007
COc1ccc(-c2ccc3ncc(Nc4cc(F)cc(N5CCOCC5)c4)n3n2)cc1OC [NCGC00412497-01]	0.0111
Cc1c(-c2ccccc2F)[nH]c2ccc(CNC(=O)CCc3cc(O)no3)cc12 [NCGC00437347-01]	0.00989
COc1cccc(C(=O)Nc2ccc(-c3nc4ccccc4s3)cc2Cl)c1 [NCGC00137802-01]	> 0.03
CCCCCc1nn2cc(-c3ccccc3)nc2s1 [NCGC00117458-01]	0.000624
Cc1cccn2c(=O)c(C(=O)NCCc3ccccc3)cnc12 [NCGC00137532-01]	0.007
O=C(CCC[S+](=O)([O-])c1ccc(Cl)cc1)Nc1ccc(O)c(-c2nc3ccccc3s2)c1 [NCGC00347270-01]	> 0.03
Cc1cccc(OCCc2noc(C3CN(C(=O)Nc4ccc5c(c4)OCCO5)C3)n2)c1 [NCGC00464383-01]	0.007
Cc1ccc2nc(-c3ccc4nc(-c5ccc(NC(=O)c6cccc(Cl)c6)cc5)sc4c3)sc2c1[S+](=O)([O-])O [NCGC00386846-01]	0.00442

Compound	IC50 [mM]
Cc1ccc2nc(-c3ccc(NC(=O)c4ccccc4S(C)(=O)=O)cc3)sc2c1 [NCGC00141658-01]	0.0111
COC(=O)c1c(-c2cccs2)csc1NC(=O)c1ccc(C)cc1 [NCGC00118339-01]	0.0157
CN1CCNc2cc(-c3ccc([S+](C)(=O)[O-])cc3)ncc2C1 [NCGC00411079-01]	> 0.03
Nc1cccc(-c2ccc(N3CCCCC3)nn2)c1 [NCGC00432709-01]	0.000556
O=C(Nc1ccccc1)N1CCc2nc(C3CC3)nc(-c3ccc(Cl)cc3)c2C1 [NCGC00480419-01]	> 0.03
CCC(C(=O)NCCn1ccn2nc(-c3ccc(OC)cc3)cc2c1=O)c1ccccc1 (stereo not shown) [NCGC00456905-01]	0.0111
Cc1ccc(CNC(=O)Nc2cccc(-c3ccc(N4CCOCC4)nn3)c2)cc1 [NCGC00427596-01]	0.00279
Cc1cccc(CCNC(=O)c2sc3nc4n(c(=O)c3c2C)CCCC4)c1 [NCGC00121158-01]	> 0.03
COc1ccc(-c2cc(N3CCCC(NC(=O)c4ccc5c(c4)OCO5)C3)[nH]n2)cc1 (stereo not shown) [NCGC00437602-01]	0.0111
COc1ccc(-c2nc(C)c(CCNC(=O)c3cccs3)s2)cc1 [NCGC00135787-01]	0.0111
COc1ccccc1-c1noc(-c2ccc(N3CCN(C)CC3)c([N+](=O)[O-])c2)n1 [NCGC00119222-01]	0.00495
CC1(NC(=O)C2CC2)CN(Cc2nc(-c3ccccc3)cs2)C1 [NCGC00410376-01]	0.0202
Cc1ccc(C2Cn3nnc(C(=O)N4CCC(C(=O)NCCN5CCCC5)CC4)c3CO2)cc1 (stereo not shown) [NCGC00449567-01]	0.00989
CCC(CC)COC(=O)[C@H](C)N[P@](=O)(OC[C@H]1O[C@@](C#N)(c2ccc3c(N)ncnn23)[C@H](O)[C@@H]1O)Oc1ccccc1 [NCGC00686694-05]	> 0.03
Brc1ccccc1-n1ncc2c1ncn1nc(Cc3ccccc3)nc21 [NCGC00115124-01]	> 0.03
CC(C)Oc1ccc(C(=O)Nc2ccc(-c3nc4ccccc4s3)cc2)cc1 [NCGC00119129-01]	> 0.03
Cc1ccc(-n2nc(C)c([C@@H]3C=C[C@@H](NC(=O)COCC(=O)O)C3)c2C)cc1Cl [NCGC00401616-01]	> 0.03
COc1ccc(CC(=O)Nc2ccc(-c3nc4ccccc4s3)c(C)c2)cc1 [NCGC00137836-01]	> 0.03
COc1ccc(OC)c(-c2nc3ccc(OC)cc3s2)c1 [NCGC00167604-01]	0.00881
Cc1ccc(-n2ncc3c(N(C)Cc4ccccc4)ncnc32)cc1 [NCGC00139028-01]	0.00157
O=C(CSc1nnc2[nH]c(=O)cc(-c3ccccc3)n12)Nc1ccc(OC(F)(F)F)cc1 [NCGC00136515-01]	0.007
COc1ccc(-c2noc(Nc3ccccc3)n2)cc1 [NCGC00422340-01]	0.00221
Cn1cc(/C=C2\C(=O)Nc3cccnc32)c2ccccc21 [NCGC00161398-03]	0.00989
CSC(=S)Nc1ccc(-c2nc3ccc(C)cc3s2)cc1 [NCGC00640908-01]	0.00248
CCCn1ncc(-c2nc(-c3ccncc3)no2)c1C [NCGC00445972-01]	0.00881

Compound	IC50 [mM]
Cc1ccc(-c2nc(-c3ccccc3)no2)c(Cl)c1 [NCGC00085930-01]	0.000197
O=C(Nc1nn(-c2cccc(F)c2)c2cccc(N3CCOCC3)c12)C1CCC1 [NCGC00440498-01]	0.0111
C[S+](=O)([O-])CCn1ncc2cc(OCc3cccc(-c4cccc(O)c4)c3)ccc21 [NCGC00418035-01]	0.0161
Oc1cc(-c2nc3ccccc3s2)cc2c1OCCN(Cc1ncccn1)C2 [NCGC00432964-01]	> 0.03
COc1ccc(OCC(=O)Nc2ccc(O)c(-c3nc4ccccc4s3)c2)cc1 [NCGC00099132-01]	> 0.03
Cc1ccccc1CN1CC[C@H](c2nc3cc(F)ccc3[nH]2)C1 [NCGC00396601-01]	0.0255
COc1ccc(-c2nc3ccccc3s2)cc1NC(=O)c1ccc(C#N)cc1F [NCGC00103038-01]	> 0.03
COc1ccc(CN2CCOC[C@H](OCC(=O)N(C)C)C2)cc1 [NCGC00393502-01]	> 0.03
O=c1oc2ccc(F)cc2cc1-c1nc(-c2cccs2)no1 [NCGC00123380-01]	0.00313
COc1ccc(CNC(=O)Cn2cccc2C(=O)c2ccccc2C)cc1 [NCGC00113808-01]	> 0.03
CN(Cc1cccnc1)c1ccc(-c2nc(COc3ccccc3)no2)cn1 [NCGC00425502-01]	0.0124
CC1(NC(=O)C2CC2)CN(Cc2nc(-c3ccccc3OCc3ccccc3)cs2)C1 [NCGC00410379-01]	0.0161
Cc1cn2nc(C(=O)Nc3ccc(C(=O)NCCc4cccs4)cc3)cc2c(=O)[nH]1 [NCGC00453964-01]	0.00881
CCn1cc(-c2ccc(OC)cc2)cc1C(=O)O [NCGC00432677-01]	0.014
OC1CCCN(c2ccc(-c3nc(-c4cccc(C(F)(F)F)c4)no3)cn2)C1 (stereo not shown) [NCGC00441254-01]	0.00556
CSCc1nc(-c2ccncc2)nn1Cc1ccc2c(c1)OCO2 [NCGC00447092-01]	> 0.03
COc1ccc(CNC(=O)Nc2cccc(-c3ccc(N4CCOCC4)nn3)c2)cc1 [NCGC00427608-01]	0.00197
COc1ccc(-c2nc3ccccc3s2)cc1NC(=O)c1cccc([N+](=O)[O-])c1C [NCGC00102361-01]	0.00624
COc1ccc(C(=O)Nc2cc(C)c(O)c(-c3nc4ccccc4s3)c2)cc1OC [NCGC00103306-01]	0.0014
CCn1c(=O)c(C(=O)Nc2ccc(C(C)=O)cc2)nc2ccccc21 [NCGC00107725-01]	0.0124
COc1ccc(-c2nc3c4cnn(-c5ccccc5F)c4ncn3n2)cc1 [NCGC00115088-01]	0.000785
Cc1ccc(-c2nnc(SCc3ccccc3C)o2)cc1 [NCGC00103155-01]	0.0111
Cc1ccccc1CCNC(=O)c1ccc2c(c1)nc1n2CCOC1 [NCGC00133426-01]	0.00495
